Results taken from patent US20210348164A1, “ENDOGENOUS CYTOPLASMIC ALU COMPLEMENTARY DNA IN AGE-RELATED MACULAR DEGENERATION” (University of Virginia Patent Foundation, priority 2018, published 2021).

Key:
[1] = test system: L1 ORF2p-facilitated Alu RNA-induced RPE degeneration; assay: Alu RNA-induced RPE degeneration in L1 ORF2-expressing Oryzomys palustris; assay type: in vivo; details: high dose (500 μmol)
Description: Assessment of RPE degeneration. Subretinal injections were performed as previously described (Kaneko et al., 2011; Tarallo et al., 2012; Kerur et al., 2013; Fowler et al., 2014; Kim et al., 2014). Seven days after subretinal injection, RPE health was assessed by fundus photography and immunofluorescence staining of zonula occludens-1 (ZO-1) on RPE flat mounts (whole mount of posterior eye cup containing RPE and choroid layers). Mouse RPE/choroid flat mounts were fixed with 2% paraformaldehyde, stained with rabbit polyclonal antibodies against mouse ZO-1 (1:100; Invitrogen Corp. Carlsbad, Calif., United States of America) and visualized with Alexa-594 (Invitrogen Corp.). […]
Quantification of RPE degeneration. Quantification of RPE degeneration was performed using two methodologies (binary assignment and cellular morphometry) as described previously (Kerur et al., 2018): Binary assignment (healthy versus unhealthy; Kerur et al., 2013; Fowler et al., 2014; Kim et al., 2014; Kerur et al., 2018) was independently performed by two blinded raters (inter-rater agreement=99.7%; Pearson r2=0.986, P<0.0001; Fleiss x=0.993, P<0.0001). […]

[2] = test system: L1 ORF2 reverse transcriptase activity; assay: Alu cDNA formation in Oryzomys RPE cells with enforced L1 ORF2 expression (Alu-specific qPCR of cytoplasmic fractions); assay type: cell-based, rat L1 ORF2 in Oryzomys palustris RPE cells; details: high-dose
Description: Subretinal and intravitreous injections. Subretinal injections (1 μl for mice, 3 μl for rat) or intravitreous injections (0.5 μl for mice, 2 μl for rat) in mice or rat were performed using a 35-gauge needle (Ito Co. Fuji, Japan). In vivo transfection of Alu RNA or mutant Alu RNA (3.6-300 ng per eye); Alu complementary DNA (cDNA; 0.0036-90 ng per eye); Alu reverse sequence cDNA (3.6-90 ng per eye); or 7SL cDNA (3.6-90 ng per eye) was performed using 10% NEUROPORTER™ transfection reagent (Genlantis, San Diego, Calif., United States of America) as previously described (Kaneko et al., 2011; Tarallo et al., 2012). 3TC, TM-3TC, Cpep-3TC, Cpep, PA-4 3TC, EFV, DLV, or NVP (50 μM/1 μl or 500 μM/1 μl) were administered by intravitreous injection (Mandal et al., 2011; Nasrolahi et al., 2013). […]
Alu cDNA detection by real-time PCR. […] Then samples were directly amplified by real-time quantitative PCR (7900 HT Fast Real-Time PCR system, Applied Biosystems, Foster City, Calif., United States of America) with Power SYBR Green Master Mix. […] The copy number of Alu cDNA was calculated using standard curves that were obtained using serial dilutions of the plasmids containing an Alu Y sequence. […]

[3] = test system: Alu G25C RNA-induced RPE degeneration; assay: Alu G25C RNA-induced RPE degeneration in wild-type mice; assay type: in vivo, mouse; details: WT mice; subretinal Alu G25C RNA

Compound: CC(C)Nc1cccnc1N1CCN(C(=O)c2cc3cc(NS(C)(=O)=O)ccc3[nH]2)CC1 [DLV, delavirdine]
- Alu RNA-induced RPE degeneration [1]: blocked

Compound: O=C1Nc2ccc(Cl)cc2[C@@](C#CC2CC2)(C(F)(F)F)O1 [EFV, efavirenz]
- Formation of Alu cDNA following Alu RNA transfection [2]: inhibited

Compound: L1 siRNA: siRNA targeting L1; cholesterol-conjugated mouse L1 siRNA (SEQ ID NOs: 48 and 49) in vivo, human L1 siRNA sequences in human cells (chain 1 ACUAUUACUCUGAUACCTT; chain 2 UGUACUAAGGUCAAAUCTT; cholesterol conjugated, position not given here)
- Alu G25C RNA-induced RPE degeneration [3]: prevented Alu G25C RNA-induced RPE degeneration
